The CheMixHub viscosity set

Assay: xn = mol fraction of the nth substance listed

CC(C)=O + c1ccccc1
Details | viscosity [mPa·s]
293.15 K, 101 kPa, x1 = 0.086 | 0.598
293.15 K, 101 kPa, x1 = 0.1 | 0.592
293.15 K, 101 kPa, x1 = 0.1304 | 0.581
293.15 K, 101 kPa, x1 = 0.248 | 0.535
293.15 K, 101 kPa, x1 = 0.269 | 0.528
293.15 K, 101 kPa, x1 = 0.287 | 0.513
293.15 K, 101 kPa, x1 = 0.4005 | 0.47
293.15 K, 101 kPa, x1 = 0.408 | 0.471
293.15 K, 101 kPa, x1 = 0.5661 | 0.416
293.15 K, 101 kPa, x1 = 0.587 | 0.414
293.15 K, 101 kPa, x1 = 0.6783 | 0.385
293.15 K, 101 kPa, x1 = 0.767 | 0.376
293.15 K, 101 kPa, x1 = 0.7899 | 0.357
293.15 K, 101 kPa, x1 = 0.864 | 0.362
293.15 K, 101 kPa, x1 = 0.9053 | 0.332
293.16 K, 101 kPa, x1 = 0.1304 | 0.581
293.16 K, 101 kPa, x1 = 0.287 | 0.513
293.16 K, 101 kPa, x1 = 0.4005 | 0.47
293.16 K, 101 kPa, x1 = 0.5661 | 0.416
293.16 K, 101 kPa, x1 = 0.6783 | 0.385
293.16 K, 101 kPa, x1 = 0.7899 | 0.357
293.16 K, 101 kPa, x1 = 0.9053 | 0.332
298.15 K, 101 kPa, x1 = 0.092 | 0.5569
298.15 K, 101 kPa, x1 = 0.1304 | 0.534
298.15 K, 101 kPa, x1 = 0.1895 | 0.5185
298.15 K, 101 kPa, x1 = 0.2364 | 0.4968
298.15 K, 101 kPa, x1 = 0.287 | 0.484
298.15 K, 101 kPa, x1 = 0.2986 | 0.4766
298.15 K, 101 kPa, x1 = 0.3321 | 0.4654
298.15 K, 101 kPa, x1 = 0.4005 | 0.446
298.15 K, 101 kPa, x1 = 0.4076 | 0.4368
298.15 K, 101 kPa, x1 = 0.4692 | 0.4188
298.15 K, 101 kPa, x1 = 0.49 | 0.4158
298.15 K, 101 kPa, x1 = 0.5552 | 0.3985
298.15 K, 101 kPa, x1 = 0.5608 | 0.3975
298.15 K, 101 kPa, x1 = 0.5661 | 0.401
298.15 K, 101 kPa, x1 = 0.6629 | 0.3692
298.15 K, 101 kPa, x1 = 0.6783 | 0.375
298.15 K, 101 kPa, x1 = 0.7262 | 0.3546
298.15 K, 101 kPa, x1 = 0.7691 | 0.3451
298.15 K, 101 kPa, x1 = 0.7899 | 0.351
298.15 K, 101 kPa, x1 = 0.808 | 0.3384
298.15 K, 101 kPa, x1 = 0.8946 | 0.3203
298.15 K, 101 kPa, x1 = 0.9053 | 0.33
298.16 K, 101 kPa, x1 = 0.1304 | 0.534
298.16 K, 101 kPa, x1 = 0.287 | 0.484
298.16 K, 101 kPa, x1 = 0.4005 | 0.446
298.16 K, 101 kPa, x1 = 0.5661 | 0.401
298.16 K, 101 kPa, x1 = 0.6783 | 0.375
298.16 K, 101 kPa, x1 = 0.7899 | 0.351
298.16 K, 101 kPa, x1 = 0.9053 | 0.33
303.15 K, 101 kPa, x1 = 0.086 | 0.523
303.15 K, 101 kPa, x1 = 0.1 | 0.518
303.15 K, 101 kPa, x1 = 0.248 | 0.475
303.15 K, 101 kPa, x1 = 0.269 | 0.469
303.15 K, 101 kPa, x1 = 0.2875 | 0.456
303.15 K, 101 kPa, x1 = 0.408 | 0.423
303.15 K, 101 kPa, x1 = 0.4185 | 0.417
303.15 K, 101 kPa, x1 = 0.5098 | 0.392
303.15 K, 101 kPa, x1 = 0.5498 | 0.382
303.15 K, 101 kPa, x1 = 0.587 | 0.375
303.15 K, 101 kPa, x1 = 0.6652 | 0.356
303.15 K, 101 kPa, x1 = 0.767 | 0.346
303.15 K, 101 kPa, x1 = 0.7851 | 0.331
303.15 K, 101 kPa, x1 = 0.864 | 0.332
303.15 K, 101 kPa, x1 = 0.8895 | 0.312
303.16 K, 101 kPa, x1 = 0.2875 | 0.456
303.16 K, 101 kPa, x1 = 0.4185 | 0.417
303.16 K, 101 kPa, x1 = 0.5098 | 0.392
303.16 K, 101 kPa, x1 = 0.5498 | 0.382
303.16 K, 101 kPa, x1 = 0.6652 | 0.356
303.16 K, 101 kPa, x1 = 0.7851 | 0.331
303.16 K, 101 kPa, x1 = 0.8895 | 0.312
307.35 K, 101.33 kPa, x1 = 0.1115 | 0.492
307.35 K, 101.33 kPa, x1 = 0.3573 | 0.419
307.35 K, 101.33 kPa, x1 = 0.4938 | 0.382
307.35 K, 101.33 kPa, x1 = 0.5562 | 0.374
307.35 K, 101.33 kPa, x1 = 0.6464 | 0.352
307.35 K, 101.33 kPa, x1 = 0.8853 | 0.308
313.15 K, 101 kPa, x1 = 0.086 | 0.464
313.15 K, 101 kPa, x1 = 0.1 | 0.46
313.15 K, 101 kPa, x1 = 0.248 | 0.424
313.15 K, 101 kPa, x1 = 0.269 | 0.419
313.15 K, 101 kPa, x1 = 0.408 | 0.378
313.15 K, 101 kPa, x1 = 0.587 | 0.344
313.15 K, 101 kPa, x1 = 0.767 | 0.32
313.15 K, 101 kPa, x1 = 0.864 | 0.309
323.15 K, 101 kPa, x1 = 0.086 | 0.436
323.15 K, 101 kPa, x1 = 0.1 | 0.436
323.15 K, 101 kPa, x1 = 0.248 | 0.404
323.15 K, 101 kPa, x1 = 0.269 | 0.4
323.15 K, 101 kPa, x1 = 0.408 | 0.361
323.15 K, 101 kPa, x1 = 0.587 | 0.33
323.15 K, 101 kPa, x1 = 0.767 | 0.309
